Data on 1 compound can be found in paper PMC5376326, “Inhibition of ANO1 by luteolin and its cytotoxicity in human prostate cancer PC-3 cells” (PLoS ONE, 2017).

The subject of data set [1] is FRT cells. The experiment in a line: Intracellular calcium measurement (Fluo-4) in FRT cells. The conditions noted are these: 30 and 100 μM, 20 min pretreatment, 100 μM ATP. The format is cell-based, rat. The method, then:
Intracellular calcium levels were monitored using Fluo-4 NW calcium assay kit (Invitrogen, Carlsbad, CA) as per the manufacturer's protocol in FRT and PC-3 cells. Briefly, the cells were cultured in a 96 well plate and incubated with 100 μL assay buffer including Fluo-4 NW. After 1 hour incubation, Fluo-4 fluorescence was measured with a FLUOstar Omega microplate reader equipped with syringe pumps and custom Fluo-4 excitation/emission filters (485/538 nm). Intracellular calcium increase was induced by application of 100 μM ATP.
On the technique in general: Calcium assays in cells follow changes in intracellular calcium, usually with a dye or a luminescent sensor.

Data set [2] concerns LNCaP. On the set-up: method as in PMID 18008333, PMID 23300633. The note with it: intraperitoneal 50 mg/kg; LNCaP xenograft mouse; cited from earlier work.
The test system of data set [3] is PC-3. On the set-up: method as in PMID 18008333, PMID 23300633. The conditions noted are these: intraperitoneal 10 mg/kg; PC-3 xenograft mouse; cited from earlier work.
Details of data set [4]: method as in PMID 9827549. The conditions noted are these: rat; oral 50 μmol/kg (~14.3 mg/kg) in propyleneglycol; cited from earlier work.
The subject of data set [5] is PC-3 cells. The experiment in a line: Scratch wound healing assay in PC-3 cells. The format is cell-based, human. The note with it: 10 and 30 μM; 48 h post-wound. As to the method:
PC-3 cells were cultured in a 96-well plate until they reached ~80% confluence as a monolayer and then the cell layer was wounded using a 96-Well WoundMaker (Essen BioScience, MI) and washed twice with fresh serum free media. The cells were incubated with serum free medium, and images of the wounds were taken using the IncuCyte ZOOM (Essen BioScience, MI). The wound recovery properties of test compounds were analyzed by the IncuCyte software.

Data set [6] has as its target T1, mouse ANO2 (Mus musculus, UniProt Q8CFW1).
T1 construct: expressed in transfected cells; host or cells: Fisher rat thyroid (FRT) cells, stably transfected, co-expressing halide sensor YFP
T1 sequence (Q8CFW1 1-1002): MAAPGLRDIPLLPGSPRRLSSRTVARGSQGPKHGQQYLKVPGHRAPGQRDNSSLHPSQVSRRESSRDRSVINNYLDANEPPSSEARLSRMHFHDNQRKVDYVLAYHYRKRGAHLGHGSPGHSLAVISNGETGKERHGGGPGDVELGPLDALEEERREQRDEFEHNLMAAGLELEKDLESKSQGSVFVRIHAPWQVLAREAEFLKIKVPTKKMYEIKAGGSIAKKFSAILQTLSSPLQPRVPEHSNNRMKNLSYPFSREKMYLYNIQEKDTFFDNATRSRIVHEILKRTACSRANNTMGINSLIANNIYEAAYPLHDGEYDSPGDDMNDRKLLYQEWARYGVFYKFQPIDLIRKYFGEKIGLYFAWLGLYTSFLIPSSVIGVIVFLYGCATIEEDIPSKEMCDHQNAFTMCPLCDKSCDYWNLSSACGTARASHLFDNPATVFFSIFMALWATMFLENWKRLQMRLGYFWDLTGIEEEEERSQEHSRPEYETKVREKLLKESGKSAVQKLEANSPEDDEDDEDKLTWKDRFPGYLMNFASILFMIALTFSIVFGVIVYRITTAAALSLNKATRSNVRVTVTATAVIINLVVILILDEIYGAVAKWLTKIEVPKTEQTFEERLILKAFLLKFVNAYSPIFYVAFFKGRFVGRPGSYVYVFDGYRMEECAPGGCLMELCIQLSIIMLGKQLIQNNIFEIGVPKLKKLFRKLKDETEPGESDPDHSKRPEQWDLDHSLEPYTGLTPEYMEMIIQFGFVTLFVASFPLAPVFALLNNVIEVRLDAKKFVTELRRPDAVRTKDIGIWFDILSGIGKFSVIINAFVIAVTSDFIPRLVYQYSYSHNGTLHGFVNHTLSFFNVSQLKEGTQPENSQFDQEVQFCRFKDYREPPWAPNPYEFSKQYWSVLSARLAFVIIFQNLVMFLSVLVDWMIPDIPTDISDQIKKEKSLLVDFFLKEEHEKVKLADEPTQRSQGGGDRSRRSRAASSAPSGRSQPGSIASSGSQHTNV
The experiment in a line: YFP quenching assay in FRT cells expressing mouse ANO2. The format is cell-based. The conditions noted are these: FRT cells expressing mouse ANO2 and YFP; read-out: IC50, ATP-induced activation of ANO2. As to the method:
Fisher rat thyroid (FRT) cells were stably transfected with human ANO1 (abc) or mouse ANO2 and the halide sensor YFP as described in previous study. FRT cells were cultured in Coon`s modified F12 medium with 10% FBS, 2 mM L-glutamine, 100 units/ml penicillin and 100 μg/ml streptomycin at 37°C and 5% CO2. PC-3 cells were grown in RPMI 1640 medium supplemented with 10% FBS, 100 units/ml penicillin and 100 μg/ml streptomycin at 37°C and 5% CO2. There were populations of PC-3 cells with high and low expression of ANO1. […]
ANO1 and YFP expressing FRT cells were plated in 96-well black-walled microplates (Corning Inc., Corning, NY) at a density of 20,000 cells per well. Assays were done using FLUOstar Omega microplate reader (BMG Labtech, Ortenberg, Germany) and MARS Data Analysis Software (BMG Labtech) as described in our previous study. […] After 10 minutes incubation at 37°C, 96-well plates were transferred to the plate reader for fluorescence assay. Each well was assayed individually for ANO1-mediated I^- influx by monitoring YFP fluorescence continuously (400 ms per point) for 2 s (baseline), then 140 mM I^- solution containing 200 μM ATP was added at 2 s and then YFP fluorescence was recorded for 6 s. Initial iodide influx rate was determined from the initial slope of fluorescence decrease, by nonlinear regression, following infusion of iodide with ATP.

The term IC50 denotes the point on the concentration scale where inhibition reaches its midpoint. As to `O=c1cc(-c2ccc(O)c(O)c2)oc2cc(O)cc(O)c12` [luteolin], the “Effect on ATP-induced cytosolic calcium increase” value in data set [1] is listed as “not affected”. In addition, in data set [2], the “Volume and weight of solid tumors” value is “significantly decreased”. Besides, the “Volume and weight of solid tumors” value in data set [3] is on record as “significantly decreased”. In addition, in data set [4], the “Maximum plasma level of free luteolin” value is listed as ~ 3.08 μM; the “Maximum plasma level of total luteolin (free luteolin and its conjugates)” value is ~ 15.5 μM. Moreover, the “Inhibition of wound recovery, high versus low ANO1 expressing PC-3 cells” value in data set [5] is given as “more strongly inhibited”. In data set [6], the IC50 is around 120 µM.
